In ChEMBL document CHEMBL5532638, “Current development of 1,2,3-triazole derived potential antimalarial scaffolds: Structure- activity relationship (SAR) and bioactive compounds” (Eur J Med Chem, 2023):

Legend:
Plasmodium falciparum [1] = assay: Antiplasmodial activity against Plasmodium falciparum 3D7 infected in human red blood cells assessed as parasite growth inhibition incubated for 72 hrs by SYBR Green I staining based analysis; type: functional, organism-based, Red blood cell; details: 3D7, Erythrocyte
Plasmodium falciparum [2] = assay: Antiplasmodial activity against CQ-resistant Plasmodium falciparum K1 infected in human O+ RBCs assessed as parasite growth inhibition incubated for 72 hrs by ELISA; type: functional, organism-based; details: K1, 72 h
Plasmodium falciparum [3] = assay: Antimalarial activity against Plasmodium falciparum 3D7 assessed as parasite growth inhibition incubated for 42 hrs by [3H]-hypoxanthine incorporation assay; type: functional, organism-based
[4] = Cytotoxicity against human PC-3 cells incubated for 72 hrs by MTT assay; type: toxicity, cell-based
Plasmodium falciparum [5] = assay: Antiplasmodial activity against Plasmodium falciparum infected in O+ RBCs assessed as parasite growth inhibition incubated for 36 to 40 hrs by JSB staining based analysis; type: functional, organism-based, RBC; details: Plasmodium falciparum, Erythrocyte; read-out: IC50
Plasmodium falciparum [6] = assay: Antimalarial activity against CQ-resistant Plasmodium falciparum RKL-9 field isolate at asexual stage assessed as parasite growth inhibition incubated for 22 to 36 hrs by SMI assay; type: functional, organism-based
Plasmodium falciparum [7] = assay: Antiplasmodial activity against Plasmodium falciparum K1 infected in O+ RBCs assessed as parasite growth inhibition incubated for 36 to 40 hrs by Geimsa staining based analysis; type: functional, organism-based, RBC; details: K1, Erythrocyte

## COc1ccc(-n2cc(/C=N/Nc3ccccc3)nn2)cc1
Plasmodium falciparum [1]
  IC50: 4440 nM

## Cc1cccc(C)c1N/N=C/c1cn(-c2cc(Cl)cc(Cl)c2)nn1
Plasmodium falciparum [1]
  IC50: 2800 nM

## O=C1C(Oc2ccccc2)C(c2ccccc2Cl)N1c1ccc(OCc2cn(Cc3ccccc3)nn2)cc1 (stereo not drawn)
Plasmodium falciparum [2]
  IC50: 850 nM

## C=CCn1cc(COc2ccc(C3C(Oc4ccccc4)C(=O)N3c3ccc(C)cc3)cc2)nn1 (stereo not drawn)
Plasmodium falciparum [2]
  IC50: 850 nM

## COc1ccc2cc3[n+](cc2c1OCc1cn(-c2ccc(S(=O)(=O)Nc4nc(C)cc(C)n4)cc2)nn1)CCc1cc2c(cc1-3)OCO2.[Cl-]
Plasmodium falciparum [3]
  IC50: 0.1 µg/mL
[4]
  CC50 at 72 h: > 200 µg/mL

## Fc1ccc(N/N=C/c2cn(-c3ccc(Cl)cc3)nn2)cc1
Plasmodium falciparum [1]
  IC50: 8450 nM

## O/N=C/c1cn(-c2cc(Cl)ccc2Cl)nn1
Plasmodium falciparum [1]
  IC50: 2800 nM

## C=CCn1cc(COc2ccc(N3C(=O)C(Oc4ccccc4)C3c3ccc(C)cc3)cc2)nn1 (stereo not drawn)
Plasmodium falciparum [2]
  IC50: 850 nM

## COc1ccc(N2C(=O)C(Oc3ccccc3)C2c2ccc(OCc3cn(Cc4ccccc4)nn3)cc2)cc1OC (stereo not drawn)
Plasmodium falciparum [2]
  IC50: 850 nM

## O=C(Cn1cc(CSc2ccc(Cl)cc2)nn1)OCc1ccccc1
Plasmodium falciparum [5]
  IC50: 209 nM

## CCCCCCCCCC(=O)OCc1cn(-c2cc(Cl)cc(Cl)c2)nn1
Plasmodium falciparum [1]
  IC50: 2800 nM

## Clc1ccc(-n2cc(/C=N/Nc3c(Cl)cccc3Cl)nn2)cc1
Plasmodium falciparum [1]
  IC50: 2800 nM

## Clc1ccc(Cl)c(-n2cc(/C=N/Nc3c(Cl)cccc3Cl)nn2)c1
Plasmodium falciparum [1]
  IC50: 2800 nM

## O=C(Cn1cc(Oc2ccc(Cl)cc2)nn1)NCCNc1ccnc2cc(Cl)ccc12
Plasmodium falciparum [6]
  IC50: 8.5 nM

## COc1ccc2cc3[n+](cc2c1OCc1cn(-c2ccc(S(=O)(=O)N4CCN(S(=O)(=O)c5ccc(-n6cc(COc7c(OC)ccc8cc9[n+](cc78)CCc7cc8c(cc7-9)OCO8)nn6)cc5)CC4)cc2)nn1)CCc1cc2c(cc1-3)OCO2.[Cl-].[Cl-]
Plasmodium falciparum [3]
  IC50: 0.1 µg/mL
[4]
  CC50 at 72 h: > 200 µg/mL

## O=C(N/N=C/c1cnn(-c2ccccc2)n1)c1ccncc1
Plasmodium falciparum [1]
  IC50: 2800 nM

## Clc1cc(Cl)cc(-n2cc(/C=N/Nc3c(Cl)cccc3Cl)nn2)c1
Plasmodium falciparum [1]
  IC50: 5560 nM

## Cc1ccc(C2C(Oc3ccccc3)C(=O)N2c2ccc(OCc3cn(Cc4ccccc4)nn3)cc2)cc1 (stereo not drawn)
Plasmodium falciparum [2]
  IC50: 850 nM

## CCOC(=O)c1cnn(-c2ccccc2)c1
Plasmodium falciparum [1]
  IC50: 2800 nM

## CCCCCCCCCC(=O)OCc1cn(-c2ccc(OC)cc2)nn1
Plasmodium falciparum [1]
  IC50: 2800 nM

## C=CCn1cc(COc2ccc(C3C(Oc4ccccc4)C(=O)N3c3ccc(OCc4cn(CC=C)nn4)cc3)cc2)nn1 (stereo not drawn)
Plasmodium falciparum [2]
  IC50: 850 nM

## Fc1ccc(N/N=C/c2cnn(-c3ccccc3)n2)cc1
Plasmodium falciparum [1]
  IC50: 2800 nM

## Cc1ccc(N2C(=O)C(Oc3ccccc3)C2c2ccc(OCc3cn(Cc4ccccc4)nn3)cc2)cc1 (stereo not drawn)
Plasmodium falciparum [2]
  IC50: 850 nM

## CCOC(=O)Cn1cc(COc2ccc(C3C(Oc4ccc(Cl)cc4Cl)C(=O)N3c3ccc(OCc4cn(CC(=O)OCC)nn4)cc3)cc2)nn1 (stereo not drawn)
Plasmodium falciparum [2]
  IC50: 850 nM

## C=CCn1cc(COc2ccc(N3C(=O)C(Oc4ccccc4)C3c3ccc([N+](=O)[O-])cc3)cc2)nn1 (stereo not drawn)
Plasmodium falciparum [2]
  IC50: 850 nM

## C=CCn1cc(COc2ccc(C3C(Oc4ccccc4)C(=O)N3c3ccccc3)cc2)nn1 (stereo not drawn)
Plasmodium falciparum [2]
  IC50: 850 nM

## O=C(N/N=C/c1cn(-c2cc(Cl)cc(Cl)c2)nn1)c1ccncc1
Plasmodium falciparum [1]
  IC50: 6960 nM

## C=CCn1cc(COc2ccc(C3C(Oc4ccc(Cl)cc4Cl)C(=O)N3c3ccc(OCc4cn(CC=C)nn4)cc3)cc2)nn1 (stereo not drawn)
Plasmodium falciparum [2]
  IC50: 850 nM

## C(=N\Nc1ccccc1)/c1cnn(-c2ccccc2)n1
Plasmodium falciparum [1]
  IC50: 2800 nM

## CCOC(=O)Cn1cc(COc2ccc(C3C(OC)C(=O)N3c3ccc(OCc4cn(CC(=O)OCC)nn4)cc3)cc2)nn1 (stereo not drawn)
Plasmodium falciparum [2]
  IC50: 850 nM

## O=C1C(Oc2ccccc2)C(c2ccc(OCc3cn(Cc4ccccc4)nn3)cc2)N1c1ccccc1 (stereo not drawn)
Plasmodium falciparum [2]
  IC50: 850 nM

## CCCCOCc1cn(-c2cc(Cl)cc(Cl)c2)nn1
Plasmodium falciparum [1]
  IC50: 2800 nM

## O=C1C(Oc2ccccc2)C(c2ccc(OCc3cn(Cc4ccccc4)nn3)cc2)N1c1ccc(OCc2cn(Cc3ccccc3)nn2)cc1 (stereo not drawn)
Plasmodium falciparum [2]
  IC50: 970 nM

## COc1ccc(-n2cc(/C=N/Nc3ccc(Cl)cc3)nn2)cc1
Plasmodium falciparum [1]
  IC50: 2800 nM

## Cc1ccc(COC(=O)Cn2cc(CSc3ccc(Br)cc3)nn2)cc1
Plasmodium falciparum [5]
  IC50: 178 nM

## O=C1C(Oc2ccc(Cl)cc2Cl)C(c2ccc(OCc3cn(Cc4ccccc4)nn3)cc2)N1c1ccc(OCc2cn(Cc3ccccc3)nn2)cc1 (stereo not drawn)
Plasmodium falciparum [2]
  IC50: 970 nM

## COc1cccc(C2C(Oc3ccccc3)C(=O)N2c2ccc(OCc3cn(Cc4ccccc4)nn3)cc2)c1 (stereo not drawn)
Plasmodium falciparum [2]
  IC50: 850 nM

## C=C[C@H]1CN2CC[C@H]1C[C@@H]2[C@@H](c1ccnc2ccc(OC)cc12)n1cc(CCCCCC)nn1
Plasmodium falciparum [7]
  IC50: 280 nM

## C=C[C@H]1CN2CC[C@H]1C[C@@H]2[C@@H](c1ccnc2ccc(OC)cc12)n1cc(CCCCCCCCCCCCCC)nn1
Plasmodium falciparum [7]
  IC50: 280 nM

## C=C[C@H]1CN2CC[C@H]1C[C@@H]2[C@@H](c1ccnc2ccc(OC)cc12)n1cc(C[C@H](N)C(=O)O)nn1
Plasmodium falciparum [7]
  IC50: 250 nM

## C=C[C@H]1CN2CC[C@H]1C[C@@H]2[C@@H](c1ccnc2ccc(OC)cc12)n1cc(CN2CCCC2C(=O)OCC)nn1 (stereo partly drawn)
Plasmodium falciparum [7]
  IC50: 330 nM
